Some results are limits rather than exact numbers.

The test system of one assay is HL-1. The assay is described as follows: protection of cardiomyocytes from stress damage, SAR follow-up, cell-based, panel, H9c2 and HL-1, H2O2, 2-deoxyglucose, ATP luminescence (AID 651642).
Another assay relates to H9c2. The description is as above.
Setting [1] is: H9c2/HL-1 cardiomyocyte 2-deoxyglucose damage, mean of runs, with 2-deoxyglucose, mean IC50 across panel.
Setting [2] is: H9c2/HL-1 cardiomyocyte 2-deoxyglucose damage, run 1, with 2-deoxyglucose.
Where [3] appears, read: H9c2/HL-1 cardiomyocyte 2-deoxyglucose damage, run 2, with 2-deoxyglucose.
Setting [4] is: H9c2/HL-1 cardiomyocyte 2-deoxyglucose damage, run 3, with 2-deoxyglucose.
[5] abbreviates: H9c2/HL-1 cardiomyocyte 2-deoxyglucose damage, run 4, with 2-deoxyglucose.
Where [6] appears, read: H9c2/HL-1 cardiomyocyte H2O2 oxidative damage, mean of runs, with H2O2, mean IC50 across panel.
Setting [7] is: H9c2/HL-1 cardiomyocyte H2O2 oxidative damage, run 1, with H2O2.
[8] abbreviates: H9c2/HL-1 cardiomyocyte H2O2 oxidative damage, run 2, with H2O2.
Where [9] appears, read: H9c2/HL-1 cardiomyocyte H2O2 oxidative damage, run 3, with H2O2.
Setting [10] is: H9c2/HL-1 cardiomyocyte H2O2 oxidative damage, run 4, with H2O2.

A word on the IC50: it is the concentration at which inhibition is half-maximal. Lower therefore signals greater potency in that assay. In the case of `COc1cc(-c2cc(C(=O)Nc3cccc(C(N)=O)c3)c3ccccc3n2)cc(OC)c1OC`, the IC50 in the assay on HL-1 (setting [1]) was 14.2 µM; in the assay on HL-1 (setting [2]) it was 7.32 µM; in the assay on HL-1 (setting [3]), 8.09 µM; with HL-1 (setting [4]), 19.2 µM; with HL-1 (setting [5]), 22.1 µM; in the assay on HL-1 (setting [6]), 4.97 µM. For the same compound, the IC50 with HL-1 (setting [7]) came out at 4.52 µM; with HL-1 (setting [8]), 5.96 µM; in the assay with HL-1 (setting [9]) it was 2.31 µM; in the assay on HL-1 (setting [10]) it was 7.08 µM; in the assay with H9c2 (setting [2]), 31.1 µM; with H9c2 (setting [3]), 31.3 µM. The IC50 was over 79 µM in the assay with H9c2 (setting [4]); over 79 µM in the assay with H9c2 (setting [5]); 2.42 µM with H9c2 (setting [6]); 2.23 µM in the assay on H9c2 (setting [7]); 2.4 µM with H9c2 (setting [8]); 2.49 µM in the assay on H9c2 (setting [9]). This compound also returned an IC50 with H9c2 (setting [10]) of 2.57 µM.
For `COc1ccc(NC(=O)CNC(=O)c2cc(-c3cc(OC)c(OC)c(OC)c3)nc3ccccc23)cc1`, the IC50 was 6.65 µM in the assay with HL-1 (setting [1]); 4.04 µM in the assay on HL-1 (setting [2]); 4.29 µM in the assay with HL-1 (setting [3]); 8.55 µM with HL-1 (setting [4]); 9.7 µM in the assay on HL-1 (setting [5]); 7.15 µM in the assay with HL-1 (setting [6]). For the same compound, the IC50 with HL-1 (setting [7]) stood at 5.04 µM; in the assay on HL-1 (setting [8]), 8.88 µM; with HL-1 (setting [9]), 7 µM; with HL-1 (setting [10]), 7.7 µM; with H9c2 (setting [1]) it was 12.8 µM; in the assay with H9c2 (setting [2]), 13.8 µM. The IC50 was 15.2 µM in the assay with H9c2 (setting [3]); 10.4 µM in the assay with H9c2 (setting [4]); 12 µM in the assay with H9c2 (setting [5]); 3.97 µM with H9c2 (setting [7]); 4.53 µM in the assay with H9c2 (setting [8]); over 79 µM with H9c2 (setting [9]). In the assay on H9c2 (setting [10]), the concentration for half-maximal inhibition (IC50) was over 79 µM.
`COc1ccc2c(c1OC)C(=O)N1c3ccccc3C(=O)N(Cc3ccccc3)C21` (stereo not drawn): the IC50 was 10.2 µM in the assay with HL-1 (setting [1]); 3.57 µM in the assay with HL-1 (setting [2]); 4.36 µM in the assay on HL-1 (setting [3]); 13.8 µM with HL-1 (setting [4]); 18.9 µM in the assay on HL-1 (setting [5]); over 79 µM in the assay on HL-1 (setting [6]). The IC50 was over 79 µM in the assay with HL-1 (setting [7]); over 79 µM in the assay with HL-1 (setting [8]); over 79 µM in the assay with HL-1 (setting [9]); over 79 µM in the assay on HL-1 (setting [10]); 44.9 µM in the assay on H9c2 (setting [2]); 49.1 µM in the assay with H9c2 (setting [3]). Also, the IC50 was over 79 µM with H9c2 (setting [4]); over 79 µM in the assay on H9c2 (setting [5]); 3.56 µM in the assay on H9c2 (setting [7]); 4.07 µM with H9c2 (setting [8]); over 79 µM in the assay with H9c2 (setting [9]); over 79 µM with H9c2 (setting [10]).
For `COc1ccccc1CN1C(=O)c2ccccc2N2C(=O)c3c(ccc(OC)c3OC)C12` (stereo not drawn), the IC50 with HL-1 (setting [1]) is 5.37 µM; in the assay with HL-1 (setting [2]), 2.86 µM; in the assay with HL-1 (setting [3]), 3.96 µM; in the assay with HL-1 (setting [4]) it was 6.95 µM; with HL-1 (setting [5]), 7.71 µM; in the assay on HL-1 (setting [7]) it was over 79 µM. In addition, the IC50 is over 79 µM with HL-1 (setting [8]); 4.54 µM with HL-1 (setting [9]); 12 µM with HL-1 (setting [10]); over 79 µM with H9c2 (setting [2]); over 79 µM in the assay with H9c2 (setting [3]); 43.5 µM in the assay on H9c2 (setting [4]). In addition, the IC50 is 46.2 µM with H9c2 (setting [5]); over 79 µM in the assay with H9c2 (setting [7]); 0.303 µM in the assay with H9c2 (setting [8]); over 79 µM with H9c2 (setting [9]); over 79 µM in the assay on H9c2 (setting [10]).
Take `CCOC(=O)c1cccc(NC(=O)c2cc(-c3cc(OC)c(OC)c(OC)c3)nc3ccc(F)cc23)c1`: the concentration for half-maximal inhibition (IC50) was 3.32 µM in the assay with HL-1 (setting [2]); 4.09 µM in the assay with HL-1 (setting [3]); over 79 µM with HL-1 (setting [4]); over 79 µM in the assay on HL-1 (setting [5]); 4.11 µM in the assay on HL-1 (setting [6]); 2.77 µM in the assay on HL-1 (setting [7]). Further, the IC50 in the assay on HL-1 (setting [8]) is 7.9 µM; with HL-1 (setting [9]), 2.4 µM; in the assay with HL-1 (setting [10]), 3.37 µM; in the assay on H9c2 (setting [1]), over 79 µM; in the assay on H9c2 (setting [2]), over 79 µM; with H9c2 (setting [3]), over 79 µM. Further, the IC50 in the assay with H9c2 (setting [4]) was over 79 µM; in the assay with H9c2 (setting [5]), over 79 µM; with H9c2 (setting [7]), 9 µM; in the assay on H9c2 (setting [8]), 10.7 µM; in the assay on H9c2 (setting [9]), over 79 µM; in the assay with H9c2 (setting [10]), 3.82 µM.
For the compound `CCOC(=O)c1cccc(NC(=O)CNC(=O)c2cc(-c3cc(OC)c(OC)c(OC)c3)nc3c(Cl)cccc23)c1`, the IC50 in the assay with HL-1 (setting [2]) is 3.56 µM; in the assay with HL-1 (setting [3]), 5.79 µM; in the assay on HL-1 (setting [4]), over 79 µM; in the assay with HL-1 (setting [5]) it was over 79 µM; in the assay with HL-1 (setting [7]), over 79 µM; with HL-1 (setting [8]), over 79 µM. Also, the IC50 in the assay with HL-1 (setting [9]) is 4.99 µM; in the assay with HL-1 (setting [10]), 15.4 µM; in the assay with H9c2 (setting [1]) it was over 79 µM; with H9c2 (setting [2]) it was over 79 µM; in the assay on H9c2 (setting [3]), over 79 µM; in the assay on H9c2 (setting [4]) it was over 79 µM. Besides, the IC50 is over 79 µM with H9c2 (setting [5]); 5.52 µM in the assay with H9c2 (setting [7]); 8.8 µM in the assay on H9c2 (setting [8]); over 79 µM in the assay on H9c2 (setting [9]); 3.36 µM in the assay with H9c2 (setting [10]).

The values above are taken from PubChem BioAssay AID651642 (Sanford-Burnham Center for Chemical Genomics, 2012).
